For experiment [1], the system named is MV4:11 human cancer cell lines. Briefly: Cellular viability / anti-proliferative activity, CellTiter-Glo, 5 day protocol. In kind it is cell-based. Particulars: Homo sapiens, MV4-11, 120 h, MV4:11 cells, 5 day incubation, read-out: GI50 for representative compounds on cellular proliferation of MV4:11 human cancer cell lines. Here is the method: Anti-proliferative activity using MLL-harboring cell lines. MV-4-11 and K562 cells are grown in IMDM media supplemented with 10% FBS and 1% penicillin/streptomycin, Molm-13 cells are cultured in RPMI-1640 media supplemented with 10% FBS and 1% penicillin/streptomycin. Viability assays are performed by dispensing 200 cells at 7200 cells/mL into each well of an opaque 384-well plate and adding compounds at the indicated concentrations in a final volume of 32 μL and a final concentration of DMSO of 0.3% for all samples. A certain range of compound concentrations is made through a series of 2-fold dilutions starting 30 μM at the highest, total 22 dilutions. After a set incubation period, 5 day protocol, the viability of cells in each well is assessed using the CellTiter-Glo assay (Promega), read on a 96 Microplane Luminometer (Cytation 3, BioTek). Serial dilutions of each cell type are performed in all assays to generate standard curves and the final densities of cells are determined within the dynamic range of the instrument. GI50 values are calculated based on XLfit software (IDBS, Guildford, UK) with Sigmoidal Dose-Response Model. Each compound is tested in minimum of two replicates. Data are expressed as mean.

A further experiment addresses T1, WDR5 (Homo sapiens, UniProt P61964).
T1 construct: WDR5-His Tag (A23, residues 24-334) is expressed and purified in our lab; made in house
Briefly: Time Resolved-Fluorescence Energy Transfer (TR-FRET) competition assay, displacement of 10mer-Thr-FAM probe from His-tagged WDR5. In kind it is binding. Particulars: WDR5-His tag 2 nM, 10mer-Thr-FAM 150 nM, 60 minutes at room temperature; read-out: Ki for Exemplified Compounds for Inhibition of WDR5 by TR-FRET assay. The procedure, abridged: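 Competitive TR-FRET using 2 nM His-tagged WDR5 (residues 24-334), 1 nM Tb-anti-His antibody and 150 nM 10mer-Thr-FAM probe; compounds in a 10-point, 5-fold series from 5 μM, ≤1% DMSO. Incubated 60 min at room temperature in PBS with 300 mM NaCl, 0.5 mM TCEP, 0.1% CHAPS, pH 7.2; 520/495 nm emission gave IC50, converted to Ki by the Wang equation.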

Consider 19 molecules from patent US20240262822A1, “WDR5 INHIBITORS AND MODULATORS” (Vanderbilt University, priority 2021, published 2024).

pKi: −log10 of the molar value.

Regarding `CCc1cc2c(N3CCc4c(cc(Cn5ccnc5)cc4-c4cn(C)nc4C(F)(F)F)C3=O)ccnc2c(OCCOC)n1` [Example 33, 7-((1H-Imidazol-1-yl)methyl)-2-(6-ethyl-8-(2-methoxyethoxy)-1,7-naphthyridin-4-yl)-5-(1-methyl-3-(trifluoromethyl)-1H-pyrazol-4-yl)-3,4-dihydroisoquinolin-1(2H)-one], the GI50 in experiment [1] was < 20 nM. Moreover, on WDR5, the pKi is > 10.70.
In the same order, the values of `CCc1cc2c(N3CCc4c(cc(Cn5ccnc5)cc4-c4cn(C)nc4C(F)(F)F)C3=O)ccnc2c(N2CCCC2)n1` [Example 34, 7-((1H-Imidazol-1-yl)methyl)-2-(6-ethyl-8-(pyrrolidin-1-yl)-1,7-naphthyridin-4-yl)-5-(1-methyl-3-(trifluoromethyl)-1H-pyrazol-4-yl)-3,4-dihydroisoquinolin-1(2H)-one] are 75 nM and > 10.70.
On to `CCc1cc2c(N3CCc4c(cc(Cn5ccnc5)cc4-c4cn(C)nc4C(F)(F)F)C3=O)ccnc2c(-n2cccc2)n1` [Example 35, 7-((1H-Imidazol-1-yl)methyl)-2-(6-ethyl-8-(1H-pyrrol-1-yl)-1,7-naphthyridin-4-yl)-5-(1-methyl-3-(trifluoromethyl)-1H-pyrazol-4-yl)-3,4-dihydroisoquinolin-1(2H)-one], for which the GI50 in experiment [1] was 47 nM. The pKi at WDR5 was > 10.70.
In the same order, the values of `CCOc1nc(CC)cc2c(N3CCc4c(cc(Cn5ccnc5)cc4-c4cn(C)nc4C(F)(F)F)C3=O)ccnc12` [Example 36, 7-((1H-Imidazol-1-yl)methyl)-2-(8-ethoxy-6-ethyl-1,7-naphthyridin-4-yl)-5-(1-methyl-3-(trifluoromethyl)-1H-pyrazol-4-yl)-3,4-dihydroisoquinolin-1(2H)-one] are < 20 nM and > 10.70.
The matching figures for `CCc1cc2c(N3CCc4c(cc(Cn5ccnc5)cc4-c4cn(C)nc4C(F)(F)F)C3=O)ccnc2c(CC)n1` [Example 37, 7-((1H-Imidazol-1-yl)methyl)-2-(6,8-diethyl-1,7-naphthyridin-4-yl)-5-(1-methyl-3-(trifluoromethyl)-1H-pyrazol-4-yl)-3,4-dihydroisoquinolin-1(2H)-one]: 96 nM and > 10.70.
The matching figures for `CCc1cc2c(N3CCc4c(cc(Cn5ccnc5)cc4-c4cn(C)nc4C(F)(F)F)C3=O)ccnc2c(OCC(F)F)n1` [Example 39, 7-((1H-Imidazol-1-yl)methyl)-2-(8-(2,2-difluoroethoxy)-6-ethyl-1,7-naphthyridin-4-yl)-5-(1-methyl-3-(trifluoromethyl)-1H-pyrazol-4-yl)-3,4-dihydroisoquinolin-1(2H)-one]: < 20 nM and > 10.70.
With `CCc1cc2c(N3CCc4c(cc(Cn5ccnc5)cc4-c4cn(C)nc4C(F)(F)F)C3=O)ncnc2cc1OC` [Example 43, 7-((1H-Imidazol-1-yl)methyl)-2-(6-ethyl-7-methoxyquinazolin-4-yl)-5-(1-methyl-3-(trifluoromethyl)-1H-pyrazol-4-yl)-3,4-dihydroisoquinolin-1(2H)-one], in experiment [1], the GI50 is < 20 nM. Further, at WDR5, the pKi was > 10.70.
In the same order, the values of `CCc1cc2c(N3CCc4c(cc(Cn5ccnc5)cc4-c4cn(C)nc4C(F)(F)F)C3=O)ccnc2c(N2CCOCC2)n1` [Example 44, 7-((1H-Imidazol-1-yl)methyl)-2-(6-ethyl-8-morpholino-1,7-naphthyridin-4-yl)-5-(1-methyl-3-(trifluoromethyl)-1H-pyrazol-4-yl)-3,4-dihydroisoquinolin-1(2H)-one] are < 20 nM and > 10.70.
The matching figures for `CCc1cc2c(N3CCc4c(cc(Cn5ccnc5)cc4-c4cn(C)nc4C(F)(F)F)C3=O)ccnc2c(-c2ccncc2)n1` [Example 45, 7-((1H-Imidazol-1-yl)methyl)-2-(6-ethyl-8-(pyridin-4-yl)-1,7-naphthyridin-4-yl)-5-(1-methyl-3-(trifluoromethyl)-1H-pyrazol-4-yl)-3,4-dihydroisoquinolin-1(2H)-one]: 21 nM and > 10.70.
The matching figures for `CCc1cc2c(N3CCc4c(cc(Cn5ccnc5)cc4-c4cn(C)nc4C(F)(F)F)C3=O)ccnc2c(N2CCN(C)CC2)n1` [Example 46, 7-((1H-Imidazol-1-yl)methyl)-2-(6-ethyl-8-(4-methylpiperazin-1-yl)-1,7-naphthyridin-4-yl)-5-(1-methyl-3-(trifluoromethyl)-1H-pyrazol-4-yl)-3,4-dihydroisoquinolin-1(2H)-one]: < 20 nM and > 10.70.
As to `CCc1cc2c(N3CCc4c(cc(Cn5ccnc5)cc4-n4nc(C)cc4C(F)(F)F)C3=O)ccnc2c(OC)n1` [Example 47, 7-((1H-Imidazol-1-yl)methyl)-2-(6-ethyl-8-methoxy-1,7-naphthyridin-4-yl)-5-(3-methyl-5-(trifluoromethyl)-1H-pyrazol-1-yl)-3,4-dihydroisoquinolin-1(2H)-one], the GI50 in experiment [1] came out at 296 nM. The pKi on WDR5 was 10.62.
The matching figures for `CCc1cc2c(N3CCc4c(cc(Cn5ccnc5)cc4-c4cn(C)nc4C(F)(F)F)C3=O)cc(C)nc2c(OC)n1` [Example 48, 7-((1H-Imidazol-1-yl)methyl)-2-(6-ethyl-8-methoxy-2-methyl-1,7-naphthyridin-4-yl)-5-(1-methyl-3-(trifluoromethyl)-1H-pyrazol-4-yl)-3,4-dihydroisoquinolin-1(2H)-one]: < 20 nM and > 10.70.
In the same order, the values of `COc1cc2nncc(N3CCc4c(cc(Cn5ccnc5)cc4-c4cn(C)nc4C(F)(F)F)C3=O)c2cc1OC` [Example 49, 7-((1H-Imidazol-1-yl)methyl)-2-(6,7-dimethoxycinnolin-4-yl)-5-(1-methyl-3-(trifluoromethyl)-1H-pyrazol-4-yl)-3,4-dihydroisoquinolin-1(2H)-one] are < 20 nM and > 10.70.
The matching figures for `COc1cc(OC)c2ncnc(N3CCc4c(cc(Cn5ccnc5)cc4-c4cn(C)nc4C(F)(F)F)C3=O)c2c1` [Example 50, 7-((1H-Imidazol-1-yl)methyl)-2-(6,8-dimethoxyquinazolin-4-yl)-5-(1-methyl-3-(trifluoromethyl)-1H-pyrazol-4-yl)-3,4-dihydroisoquinolin-1(2H)-one]: < 20 nM and 10.66.
Turning to `CCc1cc(OC)c2nc(C)nc(N3CCc4c(cc(Cn5ccnc5)cc4-c4cn(C)nc4C(F)(F)F)C3=O)c2c1` [Example 51, 7-((1H-Imidazol-1-yl)methyl)-2-(6-ethyl-8-methoxy-2-methylquinazolin-4-yl)-5-(1-methyl-3-(trifluoromethyl)-1H-pyrazol-4-yl)-3,4-dihydroisoquinolin-1(2H)-one], in experiment [1], the GI50 is < 20 nM. Moreover, at WDR5, the pKi is 10.66.
The matching figures for `CCc1cc2c(N3CCc4c(cc(Cn5ccnc5)cc4-c4cn(C)nc4C(F)(F)F)C3=O)ccnc2c(COC)n1` [Example 52, 7-((1H-Imidazol-1-yl)methyl)-2-(6-ethyl-8-(methoxymethyl)-1,7-naphthyridin-4-yl)-5-(1-methyl-3-(trifluoromethyl)-1H-pyrazol-4-yl)-3,4-dihydroisoquinolin-1(2H)-one]: 80 nM and 10.52.
Turning to `COc1cc2c(N3CCc4c(cc(Cn5ccnc5)cc4-c4cn(C)nc4C(F)(F)F)C3=O)nc(C)nc2cc1F` [Example 53, 7-((1H-Imidazol-1-yl)methyl)-2-(7-fluoro-6-methoxy-2-methylquinazolin-4-yl)-5-(1-methyl-3-(trifluoromethyl)-1H-pyrazol-4-yl)-3,4-dihydroisoquinolin-1(2H)-one], in experiment [1], the GI50 is < 20 nM. The pKi at WDR5 is > 10.70.
Turning to `COc1cc2c(N3CCc4c(cc(Cn5ccnc5)cc4-c4cn(C)nc4C(F)(F)F)C3=O)nc(C)nc2cc1N1CCC1` [Example 54, 7-((1H-Imidazol-1-yl)methyl)-2-(7-(azetidin-1-yl)-6-methoxy-2-methylquinazolin-4-yl)-5-(1-methyl-3-(trifluoromethyl)-1H-pyrazol-4-yl)-3,4-dihydroisoquinolin-1(2H)-one], the GI50 in experiment [1] is 81 nM. The pKi on WDR5 was > 10.70.
In the same order, the values of `CNc1cc2nc(C)nc(N3CCc4c(cc(Cn5ccnc5)cc4-c4cn(C)nc4C(F)(F)F)C3=O)c2cc1OC` [Example 55, 7-((1H-Imidazol-1-yl)methyl)-2-(6-methoxy-2-methyl-7-(methylamino)quinazolin-4-yl)-5-(1-methyl-3-(trifluoromethyl)-1H-pyrazol-4-yl)-3,4-dihydroisoquinolin-1(2H)-one] are 47 nM and > 10.70.
